Test results: publication PMC5559341 (ACS chemical neuroscience, 2017)

Assays:
Assay in all cases: TEVC electrophysiology, Xenopus oocytes
Assay type in all cases: cell-based
GluN1/2D = GluN1/2D (Rattus norvegicus, UniProt P35439+Q62645)
GluN1/2B = GluN1/2B (Rattus norvegicus, UniProt P35439+Q00960)
GluN1/2C = GluN1/2C (Rattus norvegicus, UniProt P35439+Q00961)
GluN1/2A = GluN1/2A (Rattus norvegicus, UniProt P35439)

Row | SMILES | EC50 (GluN1/2D) [µM] | EC50 (GluN1/2B) [µM] | EC50 (GluN1/2C) [µM] | EC50 (GluN1/2A) [µM]
1 | N[C@@H](COCc1ccccc1)C(=O)O [8b] | > 300 | > 300 | > 300 | 
2 | CCCCSC[C@H](N)C(=O)O [10a, S-Butyl L-cysteine] | > 300 |  | > 300 | 
3 | CCCCSC[C@@H](N)C(=O)O [10b, S-Butyl D-cysteine] | > 300 | > 300 | > 300 | 
4 | N[C@@H](CSCc1ccccc1)C(=O)O [11a, S-benzyl substituted L-cysteine] | > 300 |  | 87 | 
5 | N[C@H](CSCc1ccccc1)C(=O)O [11b, S-benzylated D-cysteine] | > 300 |  | > 300 | 
6 | CCCCC(=O)NC[C@@H](N)C(=O)O [13a, pentanamido analogue 13a] | > 300 | > 300 | 206 | > 300
7 | CCCCC(=O)NC[C@H](N)C(=O)O [13b] | > 300 |  | > 300 | 
